Conditions: Brillouin light scattering

CC(C)CC(C)(C)C [2,2,4-trimethylpentane]
Conditions	speed of sound [m/s]
294.06 K, 100 kPa, Liquid	1099.7
294.37 K, 3000 kPa, Liquid	1127.4
294.65 K, 6000 kPa, Liquid	1147.6
294.84 K, 10000 kPa, Liquid	1176.1
294.97 K, 12000 kPa, Liquid	1181.7
304.03 K, 100 kPa, Liquid	1058.5
304.16 K, 3000 kPa, Liquid	1088.2
304.23 K, 6000 kPa, Liquid	1109.6
304.27 K, 10000 kPa, Liquid	1136.9
304.27 K, 12000 kPa, Liquid	1147.7
313.81 K, 100 kPa, Liquid	1017.3
313.82 K, 10000 kPa, Liquid	1100.1
313.85 K, 12000 kPa, Liquid	1110.8
313.92 K, 3000 kPa, Liquid	1037.2
313.96 K, 6000 kPa, Liquid	1065.2
323.56 K, 100 kPa, Liquid	978.2
323.61 K, 3000 kPa, Liquid	999.1
323.65 K, 6000 kPa, Liquid	1027.4
323.67 K, 10000 kPa, Liquid	1060.4
323.71 K, 12000 kPa, Liquid	1075.4
333.4 K, 12000 kPa, Liquid	1041.9
333.42 K, 100 kPa, Liquid	938.5
333.46 K, 10000 kPa, Liquid	1028
333.48 K, 3000 kPa, Liquid	968
333.5 K, 6000 kPa, Liquid	996
342.88 K, 100 kPa, Liquid	898
343.07 K, 3000 kPa, Liquid	927.9
343.16 K, 6000 kPa, Liquid	954.8
343.21 K, 12000 kPa, Liquid	1008.5
343.22 K, 10000 kPa, Liquid	990.3
352.86 K, 100 kPa, Liquid	858.9
352.89 K, 3000 kPa, Liquid	891.7
352.94 K, 6000 kPa, Liquid	921.1
353.01 K, 10000 kPa, Liquid	961.7
353.04 K, 12000 kPa, Liquid	975.5
363.39 K, 3000 kPa, Liquid	852.2
363.49 K, 6000 kPa, Liquid	883.5
363.54 K, 10000 kPa, Liquid	925.7
363.55 K, 100 kPa, Liquid	821.9
363.58 K, 12000 kPa, Liquid	943.8
373.04 K, 3000 kPa, Liquid	821.1
373.27 K, 6000 kPa, Liquid	843.9
373.41 K, 10000 kPa, Liquid	888.2
373.49 K, 12000 kPa, Liquid	908.6
383.18 K, 3000 kPa, Liquid	783.2
383.8 K, 6000 kPa, Liquid	813.8
384.11 K, 10000 kPa, Liquid	855.6
384.26 K, 12000 kPa, Liquid	876.5
393.83 K, 3000 kPa, Liquid	742.3
394 K, 6000 kPa, Liquid	782.2
394.15 K, 10000 kPa, Liquid	825.8
394.19 K, 12000 kPa, Liquid	848.1
402.16 K, 3000 kPa, Liquid	716.5
402.48 K, 6000 kPa, Liquid	750.9
402.64 K, 10000 kPa, Liquid	800.2
402.78 K, 12000 kPa, Liquid	819.5
412.57 K, 3000 kPa, Liquid	677.6
412.84 K, 6000 kPa, Liquid	719.3
413.07 K, 10000 kPa, Liquid	766.7
413.22 K, 12000 kPa, Liquid	791.3
423.95 K, 3000 kPa, Liquid	636.8
424.32 K, 6000 kPa, Liquid	678.1
424.49 K, 10000 kPa, Liquid	732.1
424.59 K, 12000 kPa, Liquid	756.7
434.51 K, 3000 kPa, Liquid	602.6
434.94 K, 6000 kPa, Liquid	647.4
435.26 K, 10000 kPa, Liquid	701
435.36 K, 12000 kPa, Liquid	726.5
443.7 K, 3000 kPa, Liquid	569.7
444 K, 6000 kPa, Liquid	619.6
444.22 K, 10000 kPa, Liquid	677.1
444.36 K, 12000 kPa, Liquid	700.3
452.94 K, 3000 kPa, Liquid	538.4
453.22 K, 6000 kPa, Liquid	588.3
454.37 K, 10000 kPa, Liquid	648.8
455.24 K, 12000 kPa, Liquid	671.1
462.54 K, 3000 kPa, Liquid	502.1
463.04 K, 6000 kPa, Liquid	558.9
463.43 K, 10000 kPa, Liquid	622.7
463.72 K, 12000 kPa, Liquid	651.6
472.45 K, 3000 kPa, Liquid	464.2
472.86 K, 6000 kPa, Liquid	530.7
473.22 K, 10000 kPa, Liquid	596.3
473.48 K, 12000 kPa, Liquid	627.7
483.15 K, 3000 kPa, Liquid	423.5
483.63 K, 6000 kPa, Liquid	496.7
484.05 K, 10000 kPa, Liquid	569.9
484.3 K, 12000 kPa, Liquid	598.4
493.12 K, 3000 kPa, Liquid	386.4
493.56 K, 6000 kPa, Liquid	464.9
494.09 K, 10000 kPa, Liquid	542.2
494.42 K, 12000 kPa, Liquid	576.5
502.8 K, 3000 kPa, Liquid	350.1
503.17 K, 6000 kPa, Liquid	435.4
503.79 K, 10000 kPa, Liquid	516.1
504.09 K, 12000 kPa, Liquid	550.4
512.41 K, 3000 kPa, Liquid	311.4
513.04 K, 6000 kPa, Liquid	404
513.78 K, 10000 kPa, Liquid	491.8
514.01 K, 12000 kPa, Liquid	526.6
523.31 K, 3000 kPa, Liquid	264.5
523.97 K, 6000 kPa, Liquid	371.4
524.59 K, 10000 kPa, Liquid	463
524.7 K, 12000 kPa, Liquid	501.3
543.28 K, 3000 kPa, Fluid (supercritical or subcritical phases)	159
543.47 K, 4000 kPa, Fluid (supercritical or subcritical phases)	233.1
543.63 K, 5000 kPa, Fluid (supercritical or subcritical phases)	282.2

— the NIST ThermoML archive (doi:10.1021/acs.jced.7b00712)
